The test system of the test is CEM cells HIV-1 protection, formazan growth assay. The test is described as follows: NCI AIDS Antiviral Assay. To be noted: for IC50: measured here: growth of uninfected CEM cells. The essentials:
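Protection of CEM cells against HIV-1 was scored from cell growth (soluble formazan) across five concentrations, with parallel uninfected cells. Lack of protection may reflect toxicity.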

The structures appear in SMILES notation. Active and inactive are the calls of the source.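 Rule for the calls: active = compounds giving half or more protection of infected cells from virus-caused growth loss, again on retest; inactive = the rest.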

In the case of `Cc1nnc(NC(=O)c2cc(=O)c3ccccc3o2)s1`, the EC50 is greater than 91.2 µM and the 50% inhibitory concentration (IC50) is greater than 91.2 µM.

Consider `O=C(O)c1onc2cc([N+](=O)[O-])ccc12`, for which the EC50 is greater than 1200 µM and the half-inhibitory concentration (IC50) was 219 µM.

In the case of `COc1cc(OC)cc(C(=O)CC(=O)c2cc(OC)cc(OC)c2)c1`, the EC50 is greater than 20.9 µM and the IC50 stood at 15.5 µM.

Take `Cc1ccc(NC(=O)CC2SC(=Nc3cccc(Cl)c3C)NC2=O)cc1` (stereo not given): the EC50 was greater than 240 µM and the IC50 worked out at 110 µM.

`C=CCNC(=O)N1CC(C)C(=O)Nc2ccccc21` (stereo not given): the EC50 is greater than 200 µM and the IC50 is greater than 200 µM.

As to `COc1ccc(/C=C/C(=O)C(C)(C)C)cc1`, the result was inactive.

For the molecule `O=C(Cc1csc2[n+]1C(=O)/C(=C/c1ccc(Cl)cc1)S2)Nc1ccccc1`, the EC50 was greater than 200 µM and the IC50 came to 30.2 µM.

Turning to `O=C1C/C(=C/c2ccc(/C=C3/CC(=O)N(c4cccc(Br)c4)C3=O)cc2)C(=O)N1c1cccc(Br)c1`, the EC50 was greater than 11.2 µM and the IC50 was greater than 11.2 µM.

As for `CCOC(=O)c1c(-c2ccc(Br)cc2)ccn1C`, the EC50 is greater than 200 µM and the half-inhibitory concentration (IC50) came out at 74.1 µM.

With `COC(=O)[C@@H]1[C@H]2CC[C@]3(C)[C@@H](OC(C)=O)CC[C@H]3[C@@H]2CC[C@H]1C(C)=O`, the EC50 was greater than 174 µM and the concentration for half-maximal inhibition (IC50) is greater than 174 µM.

As for `OC[C@H](O)[C@@H](OCc1ccccc1)[C@H](NCc1ccccc1)c1cccs1`, the EC50 was greater than 200 µM and the IC50 is 97.7 µM.

For the molecule `S=C1C(=Nc2ccccc2)N(c2ccccc2)/C(=N\c2cccc[n+]2Cc2ccccc2)N1c1ccccc1`, the EC50 is 15.5 µM and the IC50 was 27.5 µM.

Take `O=S(=O)(SCCO)c1ccccc1`: the EC50 was greater than 813 µM and the IC50 worked out at 57.5 µM.

Regarding `O=c1n(-c2ccccc2)c(=O)n2c(=O)n(-c3ccccc3)c(=O)n12`, the EC50 was greater than 100 µM and the IC50 is greater than 100 µM.

On to `COc1ccc(S(=O)(=O)Nc2ccccc2C(=O)O)cc1`, for which the result was inactive.

Regarding `CCC(Oc1ccc(OC)c2c1C(=O)CCC2)C(=O)O` (stereo not given), the result was inactive.

As for `CC1(c2ccccc2)Oc2ccccc2-n2cccc2C1=O` (stereo not given), the EC50 was 2.4 µM and the half-maximal inhibitory concentration (IC50) worked out at 12.9 µM.

Take `CC(=O)Oc1cc2c(c(=O)n1C)C(C)N(C)C2=O` (stereo not given): the EC50 was 53.7 µM and the IC50 came to 309 µM.

`COC(=O)c1cc(C(=CCCN)c2cc(Cl)c(OC)c(C(=O)OC)c2)cc(Cl)c1OC`: the EC50 was greater than 200 µM and the IC50 was 8.71 µM.

For `O=C(CCCC1Cc2ccccc2C1=O)c1ccccc1` (stereo not given), the EC50 is greater than 200 µM and the IC50 amounted to 91.2 µM.

On to `O=C(Nc1ccc(Cl)c(C(F)(F)F)c1)C(=O)C(C(=O)/C=C/c1ccccc1)C1OC(=O)c2ccccc21` (stereo not given), for which the EC50 was greater than 129 µM and the IC50 was found to be 20.9 µM.

In the case of `N#C/C(=C/c1ccc2c(c1)OCO2)C(=O)c1ccccc1`, the EC50 is greater than 36.3 µM and the IC50 is greater than 36.3 µM.

With `Cc1ccc2c(n1)C(N1CCC(C)CC1)=CC(=O)C2=O`, the outcome was inactive.

Take `CCCCCc1c(CCCC)c(=O)[nH]c2cc(CNCC(OC)OC)ccc12`: the EC50 was greater than 200 µM and the 50% inhibitory concentration (IC50) worked out at 11 µM.

As for `O=C(Nc1ccc(Cl)c(Cl)c1)O/N=C\c1c(Cl)ccc([N+](=O)[O-])c1Cl`, the result was inactive.

With `CCc1cccc(CC)c1NC(=S)N/C=C(\C#N)C(=O)c1ccc2ccccc2c1`, the outcome was inactive.

With `CC[P+](C#Cc1ccccc1)(c1ccccc1)c1ccccc1`, the EC50 is greater than 20 µM and the 50% inhibitory concentration (IC50) was 0.49 µM.

As to `O=c1oc2ccccc2c(O)c1C(C/C(CCN1CCCC1)=N\Nc1ccccc1)c1ccccc1` (stereo not given), the EC50 is greater than 97.7 µM and the 50% inhibitory concentration (IC50) was found to be 41.7 µM.

On to `Cc1ccc(C2=Nn3c(nc4sc5c(c4c3=O)CCCC5)SC2)cc1`, for which the EC50 is greater than 200 µM and the IC50 is greater than 200 µM.

Regarding `Cc1ccc(NC(=O)NC(=O)CCl)cc1`, the EC50 is greater than 31.6 µM and the half-maximal inhibitory concentration (IC50) stood at 7.76 µM.

As for `CSC(=S)NNC(=O)c1ccncc1`, the EC50 is greater than 12 µM and the 50% inhibitory concentration (IC50) is greater than 12 µM.

For `CC1CC/C(=C\c2ccc(F)cc2)C2=C1C(c1ccc(F)cc1)N1C(=O)CSC1=N2` (stereo not given), the EC50 was greater than 200 µM and the half-inhibitory concentration (IC50) was found to be 75.9 µM.

On to `Cc1ccc(/C=C2\Sc3scc(-c4ccccc4)[n+]3C2=O)cc1`, for which the EC50 was greater than 200 µM and the half-inhibitory concentration (IC50) turned out to be 89.1 µM.

With `O=C(CC(=O)c1ccccc1)C(=O)Nc1ccc(Cl)cc1`, the EC50 was greater than 12 µM and the IC50 is greater than 12 µM.

Consider `CN(C)c1ccc(C=Nc2ccc(Oc3ccc(Cl)cc3)c(Cl)c2)cc1`, for which the EC50 is greater than 200 µM and the IC50 came to 28.2 µM.

With `CCCOC(=O)c1cc(C(=CCC[C@H]2CC[C@@]3(C)[C@@H](CC[C@@H]4[C@@H]3CC[C@]3(C)[C@@H](C(C)CCCC(C)C)CC[C@@H]43)C2)c2cc(Cl)c(O)c(C(=O)OCCC)c2)cc(Cl)c1O` (stereo not given in full), the EC50 was greater than 151 µM and the 50% inhibitory concentration (IC50) is greater than 151 µM.

As for `CC(=O)c1sc2[n+](c1C)C(=O)/C(=C\c1ccccc1Cl)S2`, the EC50 was 31.6 µM and the IC50 is 110 µM.

Turning to `CC(=O)C1C(=O)C(=O)N(c2ccccc2N2C(=O)C(=O)C(C(C)=O)C2=O)C1=O` (stereo not given), the outcome was inactive.

With `CCCCCNC(=O)Sc1ccccc1C(=O)N[C@H](C)C(N)=O`, the EC50 came to 1 µM and the IC50 is 123 µM.

On to `C(=N\Nc1ccccn1)/c1ccccn1.C(=N\Nc1ccccn1)/c1ccccn1.[Cl-].[Fe+3]`, for which the EC50 was greater than 200 µM and the IC50 was 117 µM.

In the case of `COC(=O)C(CCCCNC(=O)CNC(=O)OCc1ccccc1)NC(=O)C(CCCCNC(=O)CNC(=O)OCc1ccccc1)NC(=O)OCc1ccccc1` (stereo not given), the EC50 was greater than 100 µM and the 50% inhibitory concentration (IC50) worked out at 66.1 µM.

In the case of `C=C[C@]1(O)CCC[C@]2(C)C(=O)CCC12C` (stereo not given in full), the outcome was inactive.

For `COc1ccccc1/C=C/C(=O)C(C)(C)C`, the EC50 is greater than 120 µM and the IC50 amounted to 69.2 µM.

Regarding `CC1(C)Oc2ccc3ccc(=O)oc3c2[C@@H](OC(=O)C23CCC(C)(C(=O)O2)C3(C)C)[C@H]1OC(=O)C12CCC(C)(C(=O)O1)C2(C)C` (stereo not given in full), the EC50 is 2.95 µM and the IC50 worked out at 14.1 µM.

With `CCCCCCN(CCCCCC)/N=C/c1c2c(O)c3c(O)c(C)c4c(c3c1O)C(=O)C(C)(O/C=C/C(OC)C(C)C(OC(C)=O)C(C)C(O)C(C)C(O)C(C)/C=C/C=C(C)C(=O)N2)O4` (stereo not given), the outcome was inactive.

In the case of `O=C(O)c1ccc2c(c1)C(=O)N(c1ccc(S(=O)(=O)c3ccc(N4C(=O)c5ccc(C(=O)O)cc5C4=O)cc3)cc1)C2=O`, the result was inactive.

In the case of `S=C1N/N=C/NN/C=N/N1`, the EC50 is greater than 562 µM and the IC50 turned out to be 282 µM.

With `O=C(CC(=O)Nc1ccccc1)NNC(Sc1ccccc1)c1cc(N=Nc2ccc(Br)cc2)ccc1O` (stereo not given), the result was inactive.

Take `O/N=C/c1cc2c(cc1Br)OCO2`: the EC50 is greater than 155 µM and the half-inhibitory concentration (IC50) is greater than 155 µM.

On to `COC(=O)C1=C(C(=O)OC)C2(c3ccccc3)OC1(c1ccccc1)c1cc3ccccc3cc12`, for which the result was inactive.

Take `Cc1ccc(NC(=O)CSc2nnc(-c3ccc(N=Cc4ccc(Cl)cc4)cc3)o2)cc1`: the EC50 is greater than 282 µM and the IC50 came to 145 µM.

The term EC50 denotes the concentration giving half of the maximal effect. Broadly, the IC50 is the midpoint of a concentration-inhibition curve. Low readings indicate greater potency in that assay, high ones weaker potency in that assay.
